Measured values from ChEMBL document CHEMBL2169787, “The biology and chemistry of antifungal agents: a review” (2012).
In brackets after ≈: the same amount, converted by molar mass.

Tests used:
Format in all cases: functional
Aspergillus fumigatus [1] = test: Antifungal activity against Aspergillus fumigatus assessed as growth inhibition
Aspergillus niger [2] = test: Antifungal activity against Aspergillus niger assessed as growth inhibition
Candida = test: Antifungal activity against Candida spp
Candida albicans [3] = test: Antifungal activity against Candida albicans; conditions: for MIC: Candida albicans
Aspergillus fumigatus [4] = test: Antifungal activity against Aspergillus fumigatus
Cryptococcus neoformans [5] = test: Antifungal activity against Cryptococcus neoformans
Microsporum = test: Antifungal activity against Microsporum […]
Trichophyton rubrum = test: Antifungal activity against Trichophyton rubrum
Candida parapsilosis = test: Antifungal activity against Candida parapsilosis; conditions: Lodderomyces parapsilosis
Candida tropicalis = test: Antifungal activity against Candida tropicalis
Cryptococcus neoformans [6] = test: Antifungal activity against Cryptococcus neoformans after 72 hrs by NCCLS broth microdilution method
Aspergillus flavus [7] = test: Antifungal activity against Aspergillus flavus; conditions: Aspergillus flavus
Aspergillus ochraceus = test: Antifungal activity against Aspergillus ochraceus
Aspergillus niger [8] = test: Antifungal activity against Aspergillus niger
Trichoderma viride = test: Antifungal activity against Trichoderma viride
Fusarium oxysporum = test: Antifungal activity against Fusarium oxysporum
Aspergillus flavus [9] = test: Antifungal activity against Aspergillus flavus assessed as growth inhibition
Fusarium verticillioides = test: Antifungal activity against Fusarium moniliforme
Lasiodiplodia theobromae = test: Antifungal activity against Botryodiplodia theobromae
[10] = tested on: Trichophyton mentagrophytes; test: Antifungal activity against Trichophyton mentagrophytes
Microsporum canis = test: Antifungal activity against Microsporum canis
Sporothrix schenckii = test: Antifungal activity against Sporothrix schenckii
Aspergillus fumigatus [11] = test: Antifungal activity against Aspergillus fumigatus AF980003
Candida albicans [12] = test: Ratio of compound MIC to itraconazole MIC for Candida albicans CA980001
Aspergillus fumigatus [13] = test: Ratio of compound MIC to itraconazole MIC for Aspergillus fumigatus AF980003
Candida albicans [14] = test: Antifungal activity against Candida albicans CA980001
Staphylococcus aureus = test: Antibacterial activity against Staphylococcus aureus
[15] = tested on: Mycobacterium tuberculosis; test: Antibacterial activity against Mycobacterium tuberculosis
Trichophyton tonsurans = test: Antifungal activity against Trichophyton tonsurans
Pichia kudriavzevii = test: Antifungal activity against Candida krusei

Question: What does the source list for N=C1SC(c2ccc(Cl)cc2)c2cnn(C(=O)c3ccc(Cl)cc3)c2C1=N (centres undefined)?
Answer: growth inhibition (GI) (Aspergillus fumigatus [1]): 61%; growth inhibition (GI) (Aspergillus niger [2]): 60%

Question: CCOC(=O)C1C2(C(=O)N(c3ccccc3)N=C2C)C1(c1ccccc1)c1ccccc1 (centres undefined) was tested. Which MIC (Candida) did it give?
Answer: Its MIC is 25 µg/mL (≈ 58.9 µM).

Question: CCCn1cc(-c2ccc(Cl)cc2)c(C(c2ccccc2)n2ccnc2)c1 (centres undefined) was tested. Which MIC (Candida albicans [3]) did it give?
Answer: Its MIC is 0.016 µg/mL (≈ 0.0426 µM).

Question: What does the source list for OC(CN1CCN(c2ccc(OCc3ccc(F)cc3)cc2)CC1)(Cn1cncn1)c1ccccc1 (centres undefined)?
Answer: MIC (Aspergillus fumigatus [4]): 0.0625 µg/mL (≈ 0.128 µM); MIC (Cryptococcus neoformans [5]): 0.0625 µg/mL (≈ 0.128 µM); MIC (Microsporum): 0.0625 µg/mL (≈ 0.128 µM); MIC (Trichophyton rubrum): 0.0625 µg/mL (≈ 0.128 µM); MIC (Candida parapsilosis): 0.0625 µg/mL (≈ 0.128 µM); MIC (Candida tropicalis): 0.0625 µg/mL (≈ 0.128 µM)

Question: CN(C/C=C/C#CC(C)(C)C)Cc1cccc2ccccc12 [TERBINAFINE] was tested. Which MIC50 (Cryptococcus neoformans [6]) did it give?
Answer: The MIC50 was 0.25 µg/mL (≈ 0.858 µM).

Question: Which results are given for N#CC1=C(N)OC2=C(SC3=NC4=C(C(=O)CCC4)C(c4ccc(F)cc4)N32)C1c1ccc(Cl)cc1 (centres undefined)?
Answer: MIC (Aspergillus flavus [7]): 40 µg/mL (≈ 79.2 µM); MIC (Aspergillus ochraceus): 40 µg/mL (≈ 79.2 µM)

Question: How did the “inhibition zone (IZ)” value (Candida albicans [3]) turn out when CCCCCCCCCCCCCCCc1nnc(CCCCCCC/C=C/CC(O)CCCCCC)o1 (centres undefined) was run?
Answer: Its value is 15 mm.

Question: And the “inhibition zone (IZ)” value (Aspergillus niger [8])?
Answer: Its value is 15 mm.

Question: And the “inhibition zone (IZ)” value (Trichoderma viride)?
Answer: Its value is 15 mm.

Question: What about the “inhibition zone (IZ)” value (Fusarium oxysporum) of the same compound?
Answer: Its value is 15 mm.

Question: Which results are given for N#CC(=C1CCCC1)c1nc2cc(Cl)ccc2o1?
Answer: growth inhibition (GI) (Aspergillus flavus [9]): 60%; growth inhibition (GI) (Aspergillus niger [2]): 60%

Question: What does the source list for OCC1CC(c2ccc(-c3ccccc3)cc2)N(c2ccc(F)cc2)O1 (centres undefined)?
Answer: MIC (Aspergillus flavus [7]): 2.5 µg/mL (≈ 7.16 µM); MIC (Fusarium verticillioides): 2.5 µg/mL (≈ 7.16 µM); MIC (Lasiodiplodia theobromae): 2.5 µg/mL (≈ 7.16 µM)

Question: For CCCCOc1ccccc1N1CCN(CCc2nnn(C(C)C(O)(Cn3cncn3)c3ccc(F)cc3F)n2)CC1 (centres undefined), which MIC (Cryptococcus neoformans [5]) is on record?
Answer: Its MIC is 1 µg/mL (≈ 1.72 µM).

Question: What about the MIC (Candida albicans [3]) of the same compound?
Answer: The MIC was 1 µg/mL (≈ 1.72 µM).

Question: And the MIC (Candida parapsilosis)?
Answer: The MIC was 1 µg/mL (≈ 1.72 µM).

Question: And the MIC (Candida tropicalis)?
Answer: The MIC was 1 µg/mL (≈ 1.72 µM).

Question: With O=C(O)CCSC1=C(CO)C(=O)c2ccccc2C1=O as the compound, how does the MIC (Aspergillus fumigatus [4]) read?
Answer: Its MIC is 0.78 µg/mL (≈ 2.67 µM).

Question: What about the MIC (Cryptococcus neoformans [5]) of the same compound?
Answer: The MIC was 0.78 µg/mL (≈ 2.67 µM).

Question: What about the MIC [10] of the same compound?
Answer: Its MIC is 0.78 µg/mL (≈ 2.67 µM).

Question: And the MIC (Candida albicans [3])?
Answer: The MIC was 0.78 µg/mL (≈ 2.67 µM).

Question: What about the MIC (Microsporum canis) of the same compound?
Answer: The MIC was 0.78 µg/mL (≈ 2.67 µM).

Question: And the MIC (Sporothrix schenckii)?
Answer: The MIC was 0.78 µg/mL (≈ 2.67 µM).

Question: O=C1CCCC2=C1C(c1ccc(F)cc1)N1C(=O)CSC1=N2 (centres undefined) was tested. Which MIC (Aspergillus flavus [7]) did it give?
Answer: Its MIC is 40 µg/mL (≈ 126 µM).

Question: What about the MIC (Aspergillus ochraceus) of the same compound?
Answer: Its MIC is 40 µg/mL (≈ 126 µM).

Question: With C[C@@H]1[C@H](O)[C@@H](C)/C=C/C=C/C=C/C=C/C=C/C=C/C=C/[C@H](O[C@@H]2O[C@H](C)[C@@H](O)[C@H](N)[C@@H]2O)C[C@@H]2O[C@](O)(C[C@@H](O)C[C@@H](O)[C@H](O)CC[C@@H](O)C[C@@H](O)CC(=O)O[C@H]1C)C[C@H](O)[C@H]2C(=O)O [AMPHOTERICIN B] as the compound, how does the MIC (Cryptococcus neoformans [5]) read?
Answer: The MIC was 0.13 µg/mL (≈ 0.141 µM).

Question: How did the MIC (Trichophyton rubrum) turn out when Clc1ccc(CN(Cc2ccc(-c3ccccc3)cc2)n2ccnc2)c(Cl)c1 was run?
Answer: Its MIC is 0.8 µg/mL (≈ 1.96 µM).

Question: How did the MIC (Candida) turn out when CC1=NN(c2ccccc2)C(=O)C12C(C)(C(=O)OC(C)C)C2(c1ccccc1)c1ccccc1 (centres undefined) was run?
Answer: The MIC was 25 µg/mL (≈ 55.2 µM).

Question: For N#CC(=C1CCCCC1)c1nc2cc(Cl)ccc2o1, which “growth inhibition (GI)” value (Aspergillus flavus [9]) is on record?
Answer: The value was 60%.

Question: What about the “growth inhibition (GI)” value (Aspergillus niger [2]) of the same compound?
Answer: The value was 60%.

Question: How did the MIC (Candida) turn out when COC(=O)C1C2(C(=O)N(c3ccccc3)N=C2C)C1(c1ccccc1)c1ccccc1 (centres undefined) was run?
Answer: The MIC was 25 µg/mL (≈ 60.9 µM).

Question: Which results are given for Clc1ccccc1Cn1cc(Cn2ccnc2)c2cc(Br)ccc21?
Answer: MIC (Aspergillus fumigatus [11]): 8 µg/mL (≈ 20 µM); Ratio (Candida albicans [12]): 16; Ratio (Aspergillus fumigatus [13]): 16; MIC (Candida albicans [14]): 8 µg/mL (≈ 20 µM)

Question: Which results are given for Cc1cccc(C2=NN(C(N)=S)C(c3cccnc3)C2)c1 (centres undefined)?
Answer: MIC (Staphylococcus aureus): 128 µg/mL (≈ 432 µM); MIC [15]: 6.25 µg/mL (≈ 21.1 µM)

Question: How did the MIC (Candida) turn out when CC1=NN(c2ccccc2)C(=O)C12C(C(=O)OC(C)(C)C)C2(c1ccccc1)c1ccccc1 (centres undefined) was run?
Answer: The MIC was 25 µg/mL (≈ 55.2 µM).

Question: How did the MIC (Candida) turn out when Clc1ccc(COC(Cn2ccnc2)c2ccc(Cl)cc2Cl)c(Cl)c1 (centres undefined) [MICONAZOLE] was run?
Answer: Its MIC is 2 µg/mL (≈ 4.81 µM).

Question: And the MIC (Trichophyton rubrum)?
Answer: The MIC was 0.4 µg/mL (≈ 0.961 µM).

Question: And the MIC (Trichophyton tonsurans)?
Answer: Its MIC is 0.2 µg/mL (≈ 0.481 µM).

Question: With Nc1nc(=O)[nH]cc1F [FLUCYTOSINE] as the compound, how does the MIC (Aspergillus flavus [7]) read?
Answer: The MIC was 12.5 µg/mL (≈ 96.8 µM).

Question: And the MIC (Candida albicans [3])?
Answer: Its MIC is 12.5 µg/mL (≈ 96.8 µM).

Question: What about the MIC (Aspergillus niger [8]; Aspergillus niger) of the same compound?
Answer: Its MIC is 12.5 µg/mL (≈ 96.8 µM).

Question: And the MIC (Pichia kudriavzevii)?
Answer: Its MIC is 12.5 µg/mL (≈ 96.8 µM).

Question: And the MIC (Candida tropicalis)?
Answer: The MIC was 12.5 µg/mL (≈ 96.8 µM).

Question: For NYSTATIN, which inhibition zone (IZ) (Candida) is on record?
Answer: Its inhibition zone (IZ) is 20 mm.

Question: Which MIC (Candida) does the source give for CC1=NN(c2ccccc2)C(=O)C12C(C)(C#N)C2(c1ccccc1)c1ccccc1 (centres undefined) here?
Answer: Its MIC is 25 µg/mL (≈ 63.9 µM).

Question: Which MIC (Candida) does the source give for CCN(CC)C(=O)C1C2(C(=O)N(c3ccccc3)N=C2C)C1(c1ccccc1)c1ccccc1 (centres undefined) here?
Answer: Its MIC is 25 µg/mL (≈ 55.4 µM).

Question: For OC(Cn1cncn1)(Cn1cncn1)c1ccc(F)cc1F [FLUCONAZOLE], which MIC (Cryptococcus neoformans [5]) is on record?
Answer: Its MIC is 0.53 µg/mL (≈ 1.73 µM).
